Experimental data reported in patent publication US20100297145A1, “Apoptosis promoter, cell proliferation inhibitor, prophylactic/therapeutic agent for cancer, screening method for the promoter, inhibitor or agent” (priority 2005, published 2010).

Assays:
Assay type in all cases: cell-based, human
DU145/PCA-1 [1] = assay: Cell growth of PCA-1-overexpressing cell line with EGF stimulation (MTS reagent); settings: EGF 10 ng/ml, 36 hours, serum-free, pretreatment with ERK inhibitor
Procedure: (§1) The human prostate cancer cell line DU145 (purchased from ATCC) was cultured in RPMI medium (in the presence of 10% serum) and used. The human PCA-1 gene was cleaved out from a PCA-1 vector, and this was inserted into pIRES/Neo, which is a vector that encodes the neomycin resistance gene (hereinafter pIRES/Neo/PCA-1). […] For control, a clone (DU145/Neo) incorporating an empty vector, and cultured under the same conditions, was used.
Experiments were performed using the MTS [(3-(4,5-dimethylthiazol-2-yl)-5-(3-carboxymethoxyphenyl)-2-(4-sulphonyl)-2H-tetrazolium, inner salt] reagent (Promega, Tokyo, Japan) in accordance with the attached protocol.
Cell growth for 36 hours under serum-free conditions was examined.

DU145/PCA-1 [2] = assay: Paclitaxel-induced apoptosis quantified by flowcytometry
Procedure: as §1
A control cell line (DU145/Neo) and DU145/PCA-1 were stimulated with paclitaxel (100 nM); 48 hours later, apoptosis was quantified using flowcytometry.

DU145 [3] = assay: WST-1 method, growth of DU145 transfected with siRNA
Procedure: (§2) The human prostate cancer cell line DU145 (purchased from ATCC) was cultured in RPMI1640 medium (in the presence of 10% fetal bovine serum) and used.
(§3) DU145 was transiently transfected with siRNAs against PCA-1 ([…] (SEQ ID NO:4), […] (SEQ ID NO:5), […] (SEQ ID NO:6)) using DharmaFECT 1 (GE Healthcare Bioscience.). Expression suppression and knockdown effects were confirmed by real-time PCR and PCA-1 quantitative ELISA method. Control siRNA ([…] (SEQ ID NO:7)) was purchased from GE Healthcare Bioscience.
Two days after DU145 was transfected with siRNA, the cells were harvested, and 100 μl of the cells were sown to a 96-well plate at 1×10^4/ml. Thereafter, 10 μl of a 1:9 mixture of a 1-methoxy PMS (1-methoxy-5-methylphenazinium.methylsulfate) solution and a WST-1 (2-(4-Iodophenyl)-3-(4-nitrophenyl)-5-(2,4-disulfophenyl)-2H-tetrazolium, monosodium salt) solution was added to each well every 24 hours; 1 hour later, absorbance was measured at 450 nm. As the control wavelength, 630 nm was used. The day of the start of transfection is designated as day 0.

DU145 [4] = assay: Apoptosis analysis (propidium iodide, flowcytometer) of DU145 transfected with siRNA
Procedure: as §2, §3
After DU145 was transfected with PCA-1 siRNA, the cells were harvested and fixed with ethanol. Thereafter, the cells were stained with propidium iodide, and the ratio of apoptosis cells was analyzed using a flowcytometer.

DU145/PCA-1 [5] = assay: TRAIL-induced apoptosis analyzed by flowcytometry; settings: TRAIL 50 ng/ml, 24 hours
Procedure: as §1
TRAIL is drawing attention as a new-generation anticancer agent for prostate cancer, and it has been reported that FLIP acts suppressively on the mechanism therefor.

Molecule: N#CC(=C(/N)Sc1ccccc1N)/C(C#N)=C(\N)Sc1ccccc1N [U0126]
- effect of pretreatment on EGF-stimulated growth increase of DU145/PCA-1 (DU145/PCA-1 [1]): inhibited (cancelled)
- effect on the paclitaxel-induced apoptosis inhibitory effect of PCA-1 (DU145/PCA-1 [2]; DU145/PCA-1, paclitaxel 100 nM, with ERK inhibitor): cancelled

Molecule: CC(=O)O[C@H]1C(=O)[C@@]2(C)[C@H]([C@H](OC(=O)c3ccccc3)[C@]3(O)C[C@H](OC(=O)[C@H](O)[C@@H](NC(=O)c4ccccc4)c4ccccc4)C(C)=C1C3(C)C)[C@]1(OC(C)=O)CO[C@@H]1C[C@@H]2O [paclitaxel]
- paclitaxel-induced apoptosis in DU145/PCA-1 compared with control strain (DU145/Neo) (DU145/PCA-1 [2]; paclitaxel 100 nM, 48 hours): significantly inhibited

Molecule: Control siRNA: Control siRNA (auccgcgcgauaguacgua (SEQ ID NO:7)) purchased from GE Healthcare Bioscience (AUCCGCGCGAUAGUACGUA; listed as RNA, chemistry not given here)
- absorbance relative to the absorbance on day 3 written as 1 (DU145 [3]; DU145, Day 3): 1
- absorbance relative to the absorbance on day 3 written as 1 (DU145 [3]; DU145, Day 4): 1.99
- absorbance relative to the absorbance on day 3 written as 1 (DU145 [3]; DU145, Day 5): 3.98
- absorbance relative to the absorbance on day 3 written as 1 (DU145 [3]; DU145, Day 6): 7.25
- absorbance relative to the absorbance on day 3 written as 1 (DU145 [3]; DU145, Day 7): 11.91
- absorbance relative to the absorbance on day 3 written as 1 (DU145 [3]; DU145, Day 8): 12.90
- growth of DU145 over time (in words) (DU145 [3]; DU145 transfected cells, WST-1): remarkable growth
- ratio of apoptosis cells (DU145 [4]; DU145, Day 2): 0.98%
- ratio of apoptosis cells (DU145 [4]; DU145, Day 3): 1.96%
- ratio of apoptosis cells (DU145 [4]; DU145, Day 4): 5.00%
- ratio of apoptosis cells (DU145 [4]; DU145, Day 5): 1.88%

B1: TRAIL: tumor necrosis factor-related apoptosis-inducing ligand (protein, UniProt P50591 1-281, looked up)
Tumor necrosis factor ligand …: MAMMEVQGGPSLGQTCVLIVIFTVLLQSLCVAVTYVYFTNELKQMQDKYSKSGIACFLKEDDSYWDPNDEESMNSPCWQVKWQLRQLVRKMILRTSEETISTVQEKQQNISPLVRERGPQRVAAHITGTRGRSNTLSSPNSKNEKALGRKINSWESSRSGHSFLSNLHLRNGELVIHEKGFYYIYSQTYFRFQEEIKENTKNDKQMVQYIYKYTSYPDPILLMKSARNSCWSKDAEYGLYSIYQGGIFELKENDRIFVSVTNEHLIDMDHEASFFGAFLVG
- apoptosis induction in DU145/PCA-1 compared with control (DU145/Neo) (DU145/PCA-1 [5]): significantly inhibited
